Test results as given in patent US10781202B2, “Azetidinyloxyphenylpyrrolidine compounds” (Eli Lilly and Company, priority 2014, dated 2020).
pIC50: −log10 of the molar value.

These compounds were tested against PDE4B (Homo sapiens (Human), UniProt Q07343) (assay: PDE4 Inhibition In Vitro Assay (PDE4B)). Settings: human recombinant PDE4B; 15 minutes at 30° C.; 2.5% DMSO.
Format: biochemical
Procedure: PDE4 Inhibition In Vitro Assay
The phosphodiesterase assays are performed essentially according to the method described in Loughney, K., et al., J. Biol. Chem., 271, pp. 796-806 (1996). PDE4A, PDE4B, PDE4C, PDE4D, and PDE5 human recombinant proteins are expressed and purified from Saccharomyes cerevisiae that lack endogenous PDEs. The phosphodiesterase enzymes are diluted on ice with enzyme dilution buffer (25 mM Tris, pH 7.5, 0.1 mM DTT, 5.0 mM MgCl2, 100 mM NaCl, 5 μM ZnSO4, 100 μg/mL BSA) to give approximately 20%-40% hydrolysis of cyclic nucleotide monophosphate (cNMP) in the absence of inhibitor.
The stock solution of test compounds are diluted on the Beckman BioMek™ 1000 workstation to span a concentration range of 4.5 log units in 0.5 log increments. The DMSO concentration in the final test system is 2.5% for all PDE enzymes. The final test compound concentration tested ranged from 0.03 nM to 1 μM.
The assay is performed in a 96-well microtiter plate format on a Beckman BioMek™ 1000 robotic station. Each row of the plate represents a 10-point dose response curve containing blank (no enzyme), non-inhibited control, and inhibitor dilutions spanning 4.5 log units in concentration in 0.5 log increments. Assay stock solutions are loaded into the Biomek™ reservoirs (water, inhibitor diluent [2.5% or 10% DMSO], 5× PDE assay buffer, substrate, inhibitor solutions, enzyme solutions, snake venom nucleotidase, and charcoal suspension). The reaction is initiated with enzyme, and incubated for 15 minutes at 30° C. An excess of Crotalus atrox snake venom nucleotidase (5 μL/well) is then added and the mixture is incubated for an additional 3 minutes. The reaction is terminated by the addition of 200 μL of activated charcoal suspension, after which the plate is centrifuged for 5 minutes at 750×g. A transfer program is run in which 200 μL of supernatant is removed and placed into a new plate. The amount of radioactivity released as phosphate is determined in a Wallac MicroBeta Plate™ counter.
The reduced data at each concentration of inhibitor is analyzed using a four-, three- or two-parameter logistic dose response model to provide an IC50 value.

Sequence of PDE4B (Q07343 whole entry): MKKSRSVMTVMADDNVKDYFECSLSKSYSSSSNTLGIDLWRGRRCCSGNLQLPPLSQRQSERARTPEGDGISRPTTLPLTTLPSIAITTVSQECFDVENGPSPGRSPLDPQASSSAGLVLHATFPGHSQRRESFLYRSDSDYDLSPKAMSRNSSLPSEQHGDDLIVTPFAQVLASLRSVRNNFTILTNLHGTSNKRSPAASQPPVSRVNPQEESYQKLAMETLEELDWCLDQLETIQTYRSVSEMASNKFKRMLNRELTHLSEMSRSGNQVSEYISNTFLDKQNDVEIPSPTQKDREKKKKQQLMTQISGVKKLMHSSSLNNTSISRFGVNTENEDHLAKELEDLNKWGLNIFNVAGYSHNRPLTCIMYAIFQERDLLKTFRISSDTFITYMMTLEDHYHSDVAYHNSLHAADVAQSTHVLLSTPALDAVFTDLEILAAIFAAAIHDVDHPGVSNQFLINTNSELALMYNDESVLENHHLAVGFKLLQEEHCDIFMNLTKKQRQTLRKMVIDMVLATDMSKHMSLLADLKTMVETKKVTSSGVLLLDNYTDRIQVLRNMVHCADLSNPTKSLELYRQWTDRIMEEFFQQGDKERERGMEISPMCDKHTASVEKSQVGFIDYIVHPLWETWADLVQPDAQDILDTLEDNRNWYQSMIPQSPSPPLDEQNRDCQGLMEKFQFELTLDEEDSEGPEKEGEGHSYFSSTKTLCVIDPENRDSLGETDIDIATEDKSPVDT

Row | SMILES | pIC50
1 | COc1ccc([C@@H]2CN(C(=O)[C@@H](O)CO)C[C@@]2(C)[C@@H](C)O)cc1OC1CN(c2cccnc2)C1 [Example 2, (2S)-3-[(3S,4S)-3-[(1R)-1-hydroxyethyl]-4-{4-methoxy-3-[(1-pyridin-3-ylazetidin-3-yl)oxy]phenyl}-3-methylpyrrolidin-1-yl]-3-oxopropane-1,2-diol] | 8.74
2 | COc1ccc([C@@H]2CN(C(=O)[C@@H](O)CO)C[C@@]2(C)[C@@H](C)O)cc1OC1CN(c2ccncc2)C1 [Example 3, (2S)-3-[(3S,4S)-3-[(1R)-1-hydroxyethyl]-4-{4-methoxy-3-[(1-pyridin-4-ylazetidin-3-yl)oxy]phenyl}-3-methylpyrrolidin-1-yl]-3-oxopropane-1,2-diol] | 8.11
3 | COc1ccc([C@@H]2CN(C(=O)[C@@H](O)CO)C[C@@]2(C)[C@@H](C)O)cc1OC1CN(c2ncccn2)C1 [Example 5, (2S)-3-[(3S,4S)-3-[(1R)-1-hydroxyethyl]-4-{4-methoxy-3-[(1-pyrimidin-2-ylazetidin-3-yl)oxy]phenyl}-3-methylpyrroldiin-1-yl]-3-oxopropane-1,2-diol] | 8.82
4 | COc1ccc([C@@H]2CN(C(=O)[C@@H](O)CO)C[C@@]2(C)[C@@H](C)O)cc1OC1CN(c2ccc(C#N)cn2)C1 [Example 6, (2S)-3-[(3S,4S)-3-[(1R)-1-hydroxyethyl]-4-(4-methoxy-3-{[1-(5-cyanopyridin-2-yl)azetidin-3-yl]oxy}phenyl)-3-methylpyrrolidin-1-yl]-3-oxopropane-1,2-diol] | 9.51
5 | COc1ccc([C@@H]2CN(C(=O)[C@@H](O)CO)C[C@@]2(C)[C@@H](C)O)cc1OC1CN(c2cc(C#N)ccn2)C1 [Example 7, (2S)-3-[(3S,4S)-3-[(1R)-1-hydroxyethyl]-4-(4-methoxy-3-{[1-(4-cyanopyridin-2-yl)azetidin-3-yl]oxy}phenyl)-3-methylpyrrolidin-1-yl]-3-oxopropane-1,2-diol] | 9.36
6 | COc1ccc([C@@H]2CN(C(=O)[C@@H](O)CO)C[C@@]2(C)[C@@H](C)O)cc1OC1CN(c2cc(Cl)ncn2)C1 [Example 8, (2S)-3-[(3S,4)S-3-[(1R)-1-hydroxyethyl]-4-{4-methoxy-3-[(1-(6-chloropyrimidin-4-yl)azetidin-3-yl)oxy]phenyl}-3-methylpyrrolidin-1-yl]-3-oxopropane-1,2-diol] | 9.28
7 | COc1ccc([C@@H]2CN(C(=O)[C@@H](O)CO)C[C@@]2(C)[C@@H](C)O)cc1OC1CN(c2ccc(Cl)cn2)C1 [Example 12, (2S)-3-[(3S,4S)-3-[(1R)-1-hdyroxyethyl]-4-(4-methoxy-3-{[1-(5-chloropyridin-2-yl)azetidin-3-yl]oxy}phenyl)-3-methylpyrrolidin-1-yl]-3-oxopropane-1,2-diol] | 9.80
8 | COc1ccc([C@@H]2CN(C(=O)[C@@H](O)CO)C[C@@]2(C)[C@@H](C)O)cc1OC1CN(c2ccncn2)C1 [Example 13, (2S)-3-[(3S,4S)-3-[(1R)-1-hydroxyethyl]-4-(4-methoxy-3-{[1-(pyrimidin-4-yl)azetidin-3-yl]oxy}phenyl)-3-methylpyrrolidin-1-yl]-3-oxopropane-1,2-diol] | 8.42
9 | [2H]C([2H])([2H])c1ccc(N2CC(Oc3cc([C@@H]4CN(C(=O)[C@@H](O)CO)C[C@@]4(C)[C@@H](C)O)ccc3OC)C2)nc1 [Example 14, (S)-2,3-dihydroxy-1-((3S,4S)-3-((R)-1-hydroxyethyl)-4-(4-methoxy-3-((1-(5-(methyl-D3)pyridin-2-yl)azetidin-3-yl)oxy)phenyl)-3-methylpyrrolidin-1-yl)propan-1-one] | 9.89

These compounds were tested on chronic cyclophosphamide (CYP)-induced overactive bladder mouse model (assay: Overactive Bladder In Vivo Model). Settings: tadalafil 10 mg/kg orally daily; CYP-induced OAB female C57/B16 mice; day 8, 4 hour urine collection.
Procedure: Overactive Bladder In Vivo Model
The in vivo effect of PDE4 inhibitors on OAB is studied with a chronic cyclophosphamide (CYP)-induced overactive bladder mouse model adapted from Boudes et al., Neurourol. Urodynam. 2011. In a typical study, female C57/B16 mice, approximately 20 grams in body weight (Harlan Laboratories, Inc., Indianapolis, Ind.) are used. Mice are randomized by body weight into groups one day before the start of the study. Mice are individually housed and maintained on a 12 hour light/dark cycle at 22° C. with ad lib access to food (TD 2014 with 0.72% Ca and 0.61% P, 990 IU/g D3, Teklad™, Madison, Wis.) and water Animals receive cyclophosphamide (dissolved in physiological saline) i.p. administration at 100 mg/kg on days 1, 3, 5, and 7 to chronically induce OAB. The vehicle control group received daily vehicle (HEC 1%/Tween 80 0.25%/Antifoam 0.05%) administered orally. All other groups are administered orally tadalafil at 10 mg/kg in combination with 0.1, 1.0, or 10.0 mg/kg of test compound daily at a volume of 200 μl/mouse. On day 8, mice are housed in urine collection chambers with a filter paper placed underneath chamber. Prior to urine collection, gavages of 1 ml water are given to each mouse. […] Voiding frequency and volume/void are calculated using Image J software (NIH). Data are statistically analyzed with JMP8® software (Cary, N.C.). […]

Row | SMILES | urinary frequency | volume per void
10 | CN1CC(=O)N2[C@H](c3ccc4c(c3)OCO4)c3[nH]c4ccccc4c3C[C@@H]2C1=O [tadalafil] | no significant activity | no significant activity
